According to ChEMBL document CHEMBL4732150 (J Med Chem, 2021):
The source made the active and inactive calls. The calls are words filed in the database; no cut-off is given here.

Tests used:
[1] = Selectivity ratio of IC50 for antiproliferative activity against human A-431 cells to IC50 for antiproliferative activity against human NCI-H1975 cells; type: functional
NCI-H1975 = assay: Antiproliferative activity against human NCI-H1975 cells assessed as reduction in cell viability incubated for 72 hrs by sulforhodamine B assay; type: functional, cell-based; settings: NCI-H1975, 72 h
A-431 = assay: Antiproliferative activity against human A-431 cells assessed as reduction in cell viability incubated for 72 hrs by sulforhodamine B assay; type: functional, cell-based; settings: A-431, 72 h
[2] = Intrinsic clearance in Beagle dog liver microsomes preincubated for 10 mins under shaking condition followed by NADPH generating system addition and measured up to 60 mins by LC-MS/MS analysis; type: ADME, Canis lupus familiaris, Microsome; settings: 1 h, time <=70 min
[3] = Intrinsic clearance in human liver microsomes preincubated for 10 mins under shaking condition followed by NADPH generating system addition and measured up to 60 mins by LC-MS/MS analysis; type: ADME, Microsome; settings: 1 h, time <=70 min
in vivo = settings: Sprague-Dawley, rat, po, 6 mg/kg
[4] = Cmax in Sprague-Dawley rat assessed as AZ5104 at 6 mg/kg/day, IG administered as single dose and measured up to 24 hrs by LC-MS/MS analysis; type: ADME, organism-based; set-up: route […], dose 6 mg/kg/day, time <=24; settings: in vivo, po
[5] = Half life in Beagle dog liver microsomes preincubated for 10 mins under shaking condition followed by NADPH generating system addition and measured up to 60 mins by LC-MS/MS analysis
BaF3 [6] = assay: cells; settings: Mus musculus, BaF3, 72 h
[7] = Apparent oral clearance in Sprague-Dawley rat at 6 mg/kg/day, IG administered as single dose and measured up to 24 hrs by LC-MS/MS analysis; type: ADME, organism-based; settings: in vivo
in vitro = settings: human, liver microsomes
[8] = Intrinsic clearance in Sprague-Dawley rat liver microsomes preincubated for 10 mins under shaking condition followed by NADPH generating system addition and measured up to 60 mins by LC-MS/MS analysis; type: ADME, Microsome; settings: 1 h, time <=70 min
[9] = Toxicity in Balb/c nude mouse xenografted with human NCI-H1975 cells harboring EGFR L858R/T790M mutant assessed as change in body weight at 1.5 to 2.5 mg/kg, po QD administered via gavage for 24 days and measured twice weekly; type: organism-based; settings: in vivo, 576 h, dose 1.5-2.5 mg/kg, time 24 day
[10] = Cmax in Sprague-Dawley rat at 6 mg/kg/day, IG administered as single dose and measured up to 24 hrs by LC-MS/MS analysis; type: ADME, organism-based; set-up: route […], dose 6 mg/kg/day, time <=24; settings: in vivo, po
[11] = Half life in cynomolgus monkey liver microsomes preincubated for 10 mins under shaking condition followed by NADPH generating system addition and measured up to 60 mins by LC-MS/MS analysis
BaF3 [12] = assay: Antitumor activity against mouse BAF3 cells harboring EGFR del19/T790M mutant xenografted in Balb/c nude mouse assessed as suppression of tumor growth at 3 to 5 mg/kg, po QD administered via gavage for 18 days relative to control; type: functional, organism-based; settings: dose 3-5 mg/kg, time 18.0 day, tested as the 2H-labelled form
[13] = Tmax in Sprague-Dawley rat assessed as AZ5104 at 6 mg/kg/day, IG administered as single dose and measured up to 24 hrs by LC-MS/MS analysis; type: ADME, organism-based; settings: in vivo, po
[14] = Intrinsic clearance in cynomolgus monkey liver microsomes preincubated for 10 mins under shaking condition followed by NADPH generating system addition and measured up to 60 mins by LC-MS/MS analysis; type: ADME, Macaca fascicularis, Microsome; settings: 1 h, time <=70 min
[15] = Half life in Sprague-Dawley rat liver microsomes preincubated for 10 mins under shaking condition followed by NADPH generating system addition and measured up to 20 mins by LC-MS/MS analysis
[16] = Intrinsic clearance in CD1 mouse liver microsomes preincubated for 10 mins under shaking condition followed by NADPH generating system addition and measured up to 60 mins by LC-MS/MS analysis; type: ADME, Microsome; settings: 1 h, time <=70 min
BaF3 [17] = assay: cells; settings: Mus musculus, BaF3, 72 h; remark: listed apart in the source
[18] = Half life in CD1 mouse liver microsomes preincubated for 10 mins under shaking condition followed by NADPH generating system addition and measured up to 60 mins by LC-MS/MS analysis

Row | Structure (SMILES) | Ratio IC50 [1] | IC50 (NCI-H1975) | IC50 (A-431) | further results
1 | C=C(Cl)C(=O)Nc1cc(Nc2nccc(-c3cn(C)c4ccccc34)n2)c(OC)cc1N(C)CCN(C)C | 6 | 241 nM | 1550 nM | 
2 | C=C(C(=O)Nc1cc(Nc2nccc(-c3cn(C)c4ccccc34)n2)c(OC)cc1N(C)CCN(C)C)C(F)(F)F | 21 | 546 nM | 11200 nM | 
3 | C=C(F)C(=O)Nc1cc(Nc2nccc(-c3cn(C)c4ccccc34)n2)c(OC)cc1N(C)CCN(C)C | 12 | 208 nM | 2500 nM | 
4 | C=C(C)C(=O)Nc1cc(Nc2nccc(-c3cn(C)c4ccccc34)n2)c(OC)cc1N(C)CCN(C)C | 11 | 486 nM | 5340 nM | 
6 | C/C=C/C(=O)Nc1cc(Nc2nccc(-c3cn(C)c4ccccc34)n2)c(OC)cc1N(C)CCN(C)C | 12 | 496 nM | 5790 nM | 
7 | C=CC(=O)Nc1cc(Nc2nccc(-c3cn(C)c4ccccc34)n2)c(OC)cc1N(C)CCN(C)C [OSIMERTINIB] |  |  | […] | CLint [2]: 53.2 µL/min/mg; CLint [3]: 8.1 µL/min/mg; half-life at 24 h (in vivo): 227 min; Cmax [4]: 6.4 nM; half-life at 1 h [5]: 26.1 min; IC50 (BaF3 [6]): 4 nM; CL/F [7]: 313 mL/min/kg; half-life at 1 h (in vitro): […]; CLint [8]: 37.6 µL/min/mg; Activity [9]: Toxic; Cmax [10]: 145 nM; half-life at 1 h [11]: […]; Activity (BaF3 [12]): Active; Tmax [13]: 380 min; CLint [14]: 41.7 µL/min/mg; half-life at 20 min [15]: 36.8 min; CLint [16]: 62.1 µL/min/mg; IC50 (BaF3 [17]): 21.5 nM; half-life at 1 h [18]: 22.3 min
8 | [2H]C([2H])=CC(=O)Nc1cc(Nc2nccc(-c3cn(C([2H])([2H])[2H])c4ccccc34)n2)c(OC)cc1N(C)CCN(C)C |  | […] | […] | IC50 (BaF3 [6]): 3.5 nM; IC50 (BaF3 [17]): 18 nM
9 | C=C(Br)C(=O)Nc1cc(Nc2nccc(-c3cn(C)c4ccccc34)n2)c(OC)cc1N(C)CCN(C)C | 7 | 147 nM | 1060 nM | 
